Measurements from ChEMBL document CHEMBL3991601, “The target landscape of clinical kinase drugs” (Science, 2017).
pKd: −log10 of the molar value. Structures can show the parent of a compound that is named as a salt. One block for each compound: values may come before it. Active and inactive are the calls of the source. Cut-off read from the data, not from the text of the source, for most assays here: actives have a measured Kd and inactives only a lower limit.

Legend:
[1] = target: T1, Very long-chain specific acyl-CoA dehydrogenase, mitochondrial (Homo sapiens, UniProt P49748)
T1 sequence (P49748 whole entry): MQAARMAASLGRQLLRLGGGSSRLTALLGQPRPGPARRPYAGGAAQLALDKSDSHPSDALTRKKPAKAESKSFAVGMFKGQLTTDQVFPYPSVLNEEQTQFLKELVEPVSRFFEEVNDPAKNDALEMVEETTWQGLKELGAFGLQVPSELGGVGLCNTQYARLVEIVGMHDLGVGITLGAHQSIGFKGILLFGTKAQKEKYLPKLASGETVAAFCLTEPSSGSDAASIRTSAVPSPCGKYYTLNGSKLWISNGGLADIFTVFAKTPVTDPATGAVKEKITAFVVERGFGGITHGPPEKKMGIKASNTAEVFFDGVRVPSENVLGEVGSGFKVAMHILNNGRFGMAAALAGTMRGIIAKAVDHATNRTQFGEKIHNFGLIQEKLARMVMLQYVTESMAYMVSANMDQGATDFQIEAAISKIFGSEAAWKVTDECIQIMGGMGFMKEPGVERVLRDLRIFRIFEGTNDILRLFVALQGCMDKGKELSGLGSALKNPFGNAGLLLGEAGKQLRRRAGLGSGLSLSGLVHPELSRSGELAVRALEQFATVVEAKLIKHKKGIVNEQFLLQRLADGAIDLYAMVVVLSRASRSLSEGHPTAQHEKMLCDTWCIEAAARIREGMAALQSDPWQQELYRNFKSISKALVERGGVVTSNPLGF

[2] = target: Cyclin-dependent kinase 6 (Homo sapiens, UniProt Q00534)
[3] = target: T2, Serine/threonine-protein kinase Chk1 (Homo sapiens, UniProt O14757)
T2 sequence (O14757 whole entry): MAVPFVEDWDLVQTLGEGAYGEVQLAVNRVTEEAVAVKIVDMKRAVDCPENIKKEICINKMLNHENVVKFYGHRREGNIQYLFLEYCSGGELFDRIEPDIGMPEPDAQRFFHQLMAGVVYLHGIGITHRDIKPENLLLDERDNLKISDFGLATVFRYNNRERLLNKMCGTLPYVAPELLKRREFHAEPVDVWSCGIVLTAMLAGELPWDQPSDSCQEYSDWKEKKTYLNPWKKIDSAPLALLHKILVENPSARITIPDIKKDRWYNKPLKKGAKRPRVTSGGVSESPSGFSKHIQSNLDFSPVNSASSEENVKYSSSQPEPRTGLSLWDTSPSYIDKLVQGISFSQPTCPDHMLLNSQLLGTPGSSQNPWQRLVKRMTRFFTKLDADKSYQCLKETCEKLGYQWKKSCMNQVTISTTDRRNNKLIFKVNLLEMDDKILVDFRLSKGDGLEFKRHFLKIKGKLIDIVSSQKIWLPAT

[4] = target: Dual specificity tyrosine-phosphorylation-regulated kinase 1A (Homo sapiens, UniProt Q13627)
[5] = target: Eukaryotic translation initiation factor 2-alpha kinase 1 (Homo sapiens, UniProt Q9BQI3)
[6] = target: T3, Interleukin-1 receptor-associated kinase 4 (Homo sapiens, UniProt Q9NWZ3)
T3 sequence (Q9NWZ3 whole entry): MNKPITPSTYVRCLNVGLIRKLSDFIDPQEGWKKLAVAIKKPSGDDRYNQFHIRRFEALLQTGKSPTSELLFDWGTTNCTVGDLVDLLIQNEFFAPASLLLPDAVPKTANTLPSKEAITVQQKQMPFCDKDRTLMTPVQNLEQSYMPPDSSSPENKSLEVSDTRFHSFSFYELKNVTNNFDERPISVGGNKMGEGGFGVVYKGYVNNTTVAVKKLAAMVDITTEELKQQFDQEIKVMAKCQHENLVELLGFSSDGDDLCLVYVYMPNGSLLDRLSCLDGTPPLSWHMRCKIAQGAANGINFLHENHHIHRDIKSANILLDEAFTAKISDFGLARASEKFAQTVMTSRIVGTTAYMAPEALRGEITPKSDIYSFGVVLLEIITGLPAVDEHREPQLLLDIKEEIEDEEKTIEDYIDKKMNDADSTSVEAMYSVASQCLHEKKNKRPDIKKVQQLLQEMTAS

[7] = target: Platelet-derived growth factor receptor beta (Homo sapiens, UniProt P09619)
[8] = target: Serine/threonine-protein kinase N2 (Homo sapiens, UniProt Q16513)
[9] = target: T4, Serine/threonine-protein kinase PLK4 (Homo sapiens, UniProt O00444)
T4 sequence (O00444 whole entry): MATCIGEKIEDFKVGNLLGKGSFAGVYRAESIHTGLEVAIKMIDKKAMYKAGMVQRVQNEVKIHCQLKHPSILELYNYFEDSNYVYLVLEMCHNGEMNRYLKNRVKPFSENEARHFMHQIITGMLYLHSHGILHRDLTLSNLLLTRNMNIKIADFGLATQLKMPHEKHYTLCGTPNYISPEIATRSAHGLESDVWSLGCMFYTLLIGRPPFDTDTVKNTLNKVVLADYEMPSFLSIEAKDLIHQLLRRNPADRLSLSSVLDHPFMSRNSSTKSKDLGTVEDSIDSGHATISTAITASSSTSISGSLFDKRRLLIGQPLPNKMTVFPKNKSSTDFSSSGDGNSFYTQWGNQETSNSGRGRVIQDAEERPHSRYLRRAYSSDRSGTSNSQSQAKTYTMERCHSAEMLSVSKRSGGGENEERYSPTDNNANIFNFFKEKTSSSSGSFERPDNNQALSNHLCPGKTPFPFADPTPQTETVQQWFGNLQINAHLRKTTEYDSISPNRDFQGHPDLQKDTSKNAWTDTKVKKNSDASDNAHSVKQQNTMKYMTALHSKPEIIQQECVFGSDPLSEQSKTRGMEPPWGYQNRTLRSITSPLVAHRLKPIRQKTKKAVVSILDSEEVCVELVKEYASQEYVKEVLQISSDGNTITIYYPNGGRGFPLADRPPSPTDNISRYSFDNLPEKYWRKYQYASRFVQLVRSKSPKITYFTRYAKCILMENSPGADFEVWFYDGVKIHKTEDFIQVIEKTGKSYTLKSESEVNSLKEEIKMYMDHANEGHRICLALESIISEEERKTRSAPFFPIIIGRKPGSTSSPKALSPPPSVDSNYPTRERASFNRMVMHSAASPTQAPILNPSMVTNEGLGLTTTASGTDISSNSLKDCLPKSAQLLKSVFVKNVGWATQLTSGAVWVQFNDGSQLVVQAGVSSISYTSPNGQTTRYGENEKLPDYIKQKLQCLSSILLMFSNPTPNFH

[10] = target: Serine/threonine-protein kinase SIK3 (Homo sapiens, UniProt Q9Y2K2)
[11] = target: Serine/threonine-protein kinase 10 (Homo sapiens, UniProt O94804)
Note: in the data inactive means no Kd found up to 30 µM.

Eukaryotic translation initiation factor 2-alpha kinase 1, sequence (Q9BQI3 whole entry): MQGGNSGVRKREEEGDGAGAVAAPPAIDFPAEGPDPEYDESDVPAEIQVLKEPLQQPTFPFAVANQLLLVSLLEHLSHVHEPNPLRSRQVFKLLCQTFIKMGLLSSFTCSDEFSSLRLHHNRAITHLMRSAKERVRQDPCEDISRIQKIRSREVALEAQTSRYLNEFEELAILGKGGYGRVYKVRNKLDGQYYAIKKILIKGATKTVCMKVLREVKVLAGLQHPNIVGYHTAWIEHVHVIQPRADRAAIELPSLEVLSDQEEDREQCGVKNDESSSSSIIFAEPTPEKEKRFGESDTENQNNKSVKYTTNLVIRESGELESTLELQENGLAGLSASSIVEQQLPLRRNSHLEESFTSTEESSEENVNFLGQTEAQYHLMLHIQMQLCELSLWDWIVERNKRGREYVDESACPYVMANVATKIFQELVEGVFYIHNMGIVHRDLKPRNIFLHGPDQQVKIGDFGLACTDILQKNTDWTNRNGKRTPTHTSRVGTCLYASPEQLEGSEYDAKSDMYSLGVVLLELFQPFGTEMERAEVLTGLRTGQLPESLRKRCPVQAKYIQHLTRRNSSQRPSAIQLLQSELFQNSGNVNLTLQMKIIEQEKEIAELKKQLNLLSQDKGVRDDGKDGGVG
Cyclin-dependent kinase 6, sequence (Q00534 whole entry): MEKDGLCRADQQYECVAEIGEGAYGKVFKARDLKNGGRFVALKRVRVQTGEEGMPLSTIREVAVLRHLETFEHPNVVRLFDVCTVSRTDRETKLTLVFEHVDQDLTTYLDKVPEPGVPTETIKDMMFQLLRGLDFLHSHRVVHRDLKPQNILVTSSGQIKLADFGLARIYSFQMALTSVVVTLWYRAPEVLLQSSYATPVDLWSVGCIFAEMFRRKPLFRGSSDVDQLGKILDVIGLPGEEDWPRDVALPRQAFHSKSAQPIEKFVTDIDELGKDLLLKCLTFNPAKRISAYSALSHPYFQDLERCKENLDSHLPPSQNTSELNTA
Serine/threonine-protein kinase 10, sequence (O94804 whole entry): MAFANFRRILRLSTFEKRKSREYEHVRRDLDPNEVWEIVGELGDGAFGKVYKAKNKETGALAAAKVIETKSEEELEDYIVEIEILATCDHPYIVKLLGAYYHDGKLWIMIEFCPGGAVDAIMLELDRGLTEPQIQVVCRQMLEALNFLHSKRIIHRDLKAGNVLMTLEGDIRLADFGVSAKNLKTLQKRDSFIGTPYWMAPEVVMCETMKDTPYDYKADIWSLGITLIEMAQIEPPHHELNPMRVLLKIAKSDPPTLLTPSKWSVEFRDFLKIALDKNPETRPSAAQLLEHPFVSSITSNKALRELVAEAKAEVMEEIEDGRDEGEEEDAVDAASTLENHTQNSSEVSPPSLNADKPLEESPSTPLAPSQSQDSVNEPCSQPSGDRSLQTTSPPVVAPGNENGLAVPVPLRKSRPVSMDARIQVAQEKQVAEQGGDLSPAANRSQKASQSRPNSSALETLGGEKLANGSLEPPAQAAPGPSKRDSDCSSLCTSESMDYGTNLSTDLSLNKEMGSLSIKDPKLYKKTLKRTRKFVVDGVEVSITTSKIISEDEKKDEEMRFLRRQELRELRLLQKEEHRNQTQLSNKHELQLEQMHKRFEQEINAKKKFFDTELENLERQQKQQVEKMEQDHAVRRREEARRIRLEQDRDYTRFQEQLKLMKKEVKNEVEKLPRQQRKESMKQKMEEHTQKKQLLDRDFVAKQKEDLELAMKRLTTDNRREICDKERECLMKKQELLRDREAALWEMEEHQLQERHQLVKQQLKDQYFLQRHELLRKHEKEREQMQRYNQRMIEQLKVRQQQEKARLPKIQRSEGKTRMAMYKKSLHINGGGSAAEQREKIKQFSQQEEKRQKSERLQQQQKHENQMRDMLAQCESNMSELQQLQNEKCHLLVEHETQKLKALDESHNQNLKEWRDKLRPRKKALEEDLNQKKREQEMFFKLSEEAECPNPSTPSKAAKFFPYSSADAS
Platelet-derived growth factor receptor beta, sequence (P09619 whole entry): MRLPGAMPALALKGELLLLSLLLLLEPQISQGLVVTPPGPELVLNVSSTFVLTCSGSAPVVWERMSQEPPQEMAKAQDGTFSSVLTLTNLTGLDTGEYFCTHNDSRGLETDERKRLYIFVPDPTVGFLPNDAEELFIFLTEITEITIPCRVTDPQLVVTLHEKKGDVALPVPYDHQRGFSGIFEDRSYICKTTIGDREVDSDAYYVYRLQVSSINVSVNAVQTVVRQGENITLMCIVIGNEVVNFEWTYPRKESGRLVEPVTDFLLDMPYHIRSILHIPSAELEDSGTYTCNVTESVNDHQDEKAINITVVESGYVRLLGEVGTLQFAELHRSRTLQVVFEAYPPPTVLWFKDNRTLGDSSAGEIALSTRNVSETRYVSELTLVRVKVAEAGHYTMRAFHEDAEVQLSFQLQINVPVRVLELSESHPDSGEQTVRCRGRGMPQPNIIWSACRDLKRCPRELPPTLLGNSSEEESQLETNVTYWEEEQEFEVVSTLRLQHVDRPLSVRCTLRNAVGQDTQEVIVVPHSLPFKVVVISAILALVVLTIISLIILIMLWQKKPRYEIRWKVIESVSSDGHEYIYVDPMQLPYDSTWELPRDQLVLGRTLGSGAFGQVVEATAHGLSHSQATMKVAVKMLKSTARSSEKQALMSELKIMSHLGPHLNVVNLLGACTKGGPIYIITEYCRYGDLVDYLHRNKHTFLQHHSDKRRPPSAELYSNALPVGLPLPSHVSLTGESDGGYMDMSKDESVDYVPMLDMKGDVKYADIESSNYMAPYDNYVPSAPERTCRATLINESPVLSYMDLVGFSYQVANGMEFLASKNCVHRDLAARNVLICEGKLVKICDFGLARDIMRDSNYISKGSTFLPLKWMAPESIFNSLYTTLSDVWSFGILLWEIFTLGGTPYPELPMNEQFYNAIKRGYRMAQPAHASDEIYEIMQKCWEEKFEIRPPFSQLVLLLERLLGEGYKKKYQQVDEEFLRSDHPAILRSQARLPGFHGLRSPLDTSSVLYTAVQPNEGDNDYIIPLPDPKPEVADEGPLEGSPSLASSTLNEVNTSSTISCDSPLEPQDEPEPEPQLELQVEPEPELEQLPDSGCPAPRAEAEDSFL
Serine/threonine-protein kinase SIK3, sequence (Q9Y2K2 whole entry): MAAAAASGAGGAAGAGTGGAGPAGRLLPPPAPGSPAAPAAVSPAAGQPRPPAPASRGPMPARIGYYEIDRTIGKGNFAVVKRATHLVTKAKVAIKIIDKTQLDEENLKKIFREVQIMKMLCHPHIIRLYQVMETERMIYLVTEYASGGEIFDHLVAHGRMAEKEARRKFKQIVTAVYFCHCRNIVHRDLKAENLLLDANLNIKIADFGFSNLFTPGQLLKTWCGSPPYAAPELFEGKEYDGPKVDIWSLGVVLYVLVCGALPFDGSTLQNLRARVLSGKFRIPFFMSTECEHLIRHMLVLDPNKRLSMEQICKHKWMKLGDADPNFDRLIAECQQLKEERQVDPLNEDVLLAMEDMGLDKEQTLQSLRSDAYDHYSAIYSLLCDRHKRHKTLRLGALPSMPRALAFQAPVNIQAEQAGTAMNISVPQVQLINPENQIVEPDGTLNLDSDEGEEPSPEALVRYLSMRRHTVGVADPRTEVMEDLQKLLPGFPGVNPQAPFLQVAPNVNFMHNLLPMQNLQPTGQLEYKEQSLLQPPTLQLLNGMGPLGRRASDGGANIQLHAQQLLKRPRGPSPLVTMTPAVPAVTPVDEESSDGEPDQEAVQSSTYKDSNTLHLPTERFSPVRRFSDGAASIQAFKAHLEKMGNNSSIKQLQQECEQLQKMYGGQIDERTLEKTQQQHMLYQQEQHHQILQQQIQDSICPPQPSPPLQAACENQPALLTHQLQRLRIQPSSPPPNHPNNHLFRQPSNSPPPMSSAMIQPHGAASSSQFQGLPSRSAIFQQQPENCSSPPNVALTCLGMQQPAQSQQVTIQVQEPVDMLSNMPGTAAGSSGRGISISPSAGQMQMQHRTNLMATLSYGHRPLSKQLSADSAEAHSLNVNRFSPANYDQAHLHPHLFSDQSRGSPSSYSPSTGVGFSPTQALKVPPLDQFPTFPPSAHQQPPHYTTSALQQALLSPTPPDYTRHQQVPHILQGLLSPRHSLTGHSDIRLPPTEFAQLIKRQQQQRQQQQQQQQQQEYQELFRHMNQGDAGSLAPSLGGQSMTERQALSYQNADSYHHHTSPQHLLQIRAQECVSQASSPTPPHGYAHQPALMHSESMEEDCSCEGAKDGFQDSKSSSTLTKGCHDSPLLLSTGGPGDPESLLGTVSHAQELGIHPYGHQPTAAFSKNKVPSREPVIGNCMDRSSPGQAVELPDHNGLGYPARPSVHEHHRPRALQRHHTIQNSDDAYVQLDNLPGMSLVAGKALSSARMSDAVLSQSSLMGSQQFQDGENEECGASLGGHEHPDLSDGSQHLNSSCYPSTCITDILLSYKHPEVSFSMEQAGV

Compound: CO[C@H]1C[C@@H]2CC[C@@H](C)[C@@](O)(O2)C(=O)C(=O)N2CCCC[C@H]2C(=O)O[C@H]([C@H](C)C[C@@H]2CC[C@@H](O)[C@H](OC)C2)CC(=O)[C@H](C)/C=C(\C)[C@@H](O)[C@@H](OC)C(=O)[C@H](C)C[C@H](C)/C=C/C=C/C=C/1C [SIROLIMUS]
Kd [1]: > 30 µM (inactive)
Kd [2]: > 30 µM (inactive)
Kd [3]: > 30 µM (inactive)
Kd [4]: > 30 µM (inactive)
Kd [5]: > 30 µM (inactive)
Kd [6]: > 30 µM (inactive)
Kd [7]: > 30 µM (inactive)
Kd [8]: > 30 µM (inactive)
Kd [9]: > 30 µM (inactive)
Kd [10]: > 30 µM (inactive)
Kd [11]: > 30 µM (inactive)

Compound: Cc1cc(Nc2ncnc3ccc(NC4=NC(C)(C)CO4)cc23)ccc1Oc1ccn2ncnc2c1 [TUCATINIB]
Kd [1]: > 30 µM (inactive)
Kd [2]: > 30 µM (inactive)
Kd [3]: > 30 µM (inactive)
Kd [4]: > 30 µM (inactive)
Kd [5]: > 30 µM (inactive)
Kd [6]: > 30 µM (inactive)
Kd [7]: > 30 µM (inactive)
Kd [8]: > 30 µM (inactive)
Kd [9]: > 30 µM (inactive)
Kd [10]: > 30 µM (inactive)
Kd [11]: > 30 µM (inactive)

Compound: O=C(Cc1ccc(-c2ccc(OCCN3CCOCC3)cc2)cn1)NCc1ccccc1 [TIRBANIBULIN]
Kd [1]: > 30 µM (inactive)
Kd [2]: > 30 µM (inactive)
Kd [3]: > 30 µM (inactive)
Kd [4]: > 30 µM (inactive)
Kd [5]: > 30 µM (inactive)
Kd [6]: > 30 µM (inactive)
Kd [7]: > 30 µM (inactive)
Kd [8]: > 30 µM (inactive)
Kd [9]: > 30 µM (inactive)
Kd [10]: > 30 µM (inactive)
Kd [11]: > 30 µM (inactive)

Compound: CCS(=O)(=O)N1CCN(c2ccc(Nc3ncc(C(N)=O)c(NC4CC4)n3)cc2)CC1 [Cerdulatinib Hydrochloride]
Kd [1]: > 30 µM (inactive)
Kd [2]: > 30 µM (inactive)
Kd [3]: 0.701 µM (active)
Kd [4]: > 30 µM (inactive)
pKd [5]: 5.43
Kd [6]: > 30 µM (inactive)
Kd [7]: 0.203 µM (active)
Kd [8]: > 30 µM (inactive)
Kd [9]: > 30 µM (inactive)
Kd [10]: 13.6 µM (active)
Kd [11]: > 30 µM (inactive)

Compound: O=C1NC(=O)[C@@H](c2cn3c4c(cccc24)CCC3)[C@@H]1c1c[nH]c2ccccc12 [TIVANTINIB]
Kd [1]: > 30 µM (inactive)
Kd [2]: > 30 µM (inactive)
Kd [3]: > 30 µM (inactive)
Kd [4]: > 30 µM (inactive)
Kd [5]: > 30 µM (inactive)
Kd [6]: > 30 µM (inactive)
Kd [7]: > 30 µM (inactive)
Kd [8]: > 30 µM (inactive)
Kd [9]: > 30 µM (inactive)
Kd [10]: > 30 µM (inactive)
Kd [11]: > 30 µM (inactive)

Compound: CO[C@H]1C[C@@H]2CC[C@@H](C)[C@@](O)(O2)C(=O)C(=O)N2CCCC[C@H]2C(=O)O[C@H]([C@H](C)C[C@@H]2CC[C@@H](OP(C)(C)=O)[C@H](OC)C2)CC(=O)[C@H](C)/C=C(\C)[C@@H](O)[C@@H](OC)C(=O)[C@H](C)C[C@H](C)/C=C/C=C/C=C/1C [RIDAFOROLIMUS]
Kd [1]: > 30 µM (inactive)
Kd [2]: > 30 µM (inactive)
Kd [3]: > 30 µM (inactive)
Kd [4]: > 30 µM (inactive)
Kd [5]: > 30 µM (inactive)
Kd [6]: > 30 µM (inactive)
Kd [7]: > 30 µM (inactive)
Kd [8]: > 30 µM (inactive)
Kd [9]: > 30 µM (inactive)
Kd [10]: > 30 µM (inactive)
Kd [11]: > 30 µM (inactive)

Compound: COCC(=O)NC/C=C/c1ccc2ncnc(Nc3ccc(Oc4ccc(C)nc4)c(C)c3)c2c1 [CP-724714]
Kd [1]: > 30 µM (inactive)
Kd [2]: > 30 µM (inactive)
Kd [3]: > 30 µM (inactive)
Kd [4]: > 30 µM (inactive)
Kd [5]: > 30 µM (inactive)
Kd [6]: > 30 µM (inactive)
Kd [7]: > 30 µM (inactive)
Kd [8]: > 30 µM (inactive)
Kd [9]: > 30 µM (inactive)
Kd [10]: > 30 µM (inactive)
Kd [11]: > 30 µM (inactive)

Compound: Cc1nc(NC(=O)N2CCC[C@H]2C(N)=O)sc1-c1ccnc(C(C)(C)C(F)(F)F)c1 [ALPELISIB]
Kd [1]: > 30 µM (inactive)
Kd [2]: > 30 µM (inactive)
Kd [3]: > 30 µM (inactive)
Kd [4]: > 30 µM (inactive)
Kd [5]: > 30 µM (inactive)
Kd [6]: > 30 µM (inactive)
Kd [7]: > 30 µM (inactive)
Kd [8]: > 30 µM (inactive)
Kd [9]: > 30 µM (inactive)
Kd [10]: > 30 µM (inactive)
Kd [11]: > 30 µM (inactive)

More lines, now with the values ahead:

Kd [1]: > 30 µM (inactive)
Kd [2]: > 30 µM (inactive)
Kd [3]: 1.75 µM (active)
Kd [4]: > 30 µM (inactive)
Kd [5]: > 30 µM (inactive)
Kd [6]: 2.13 µM (active)
Kd [7]: 4.59 µM (active)
Kd [8]: > 30 µM (inactive)
Kd [9]: 0.041 µM (active)
Kd [10]: > 30 µM (inactive)
Kd [11]: 0.949 µM (active)
Compound: CCS(=O)(=O)c1cccc(-c2cc(C(=O)NC3CCN(C)CC3)c(C)c3[nH]c4ncc(C)cc4c23)c1 [TAK-901]

Kd [1]: > 30 µM (inactive)
Kd [2]: > 30 µM (inactive)
Kd [3]: > 30 µM (inactive)
Kd [4]: > 30 µM (inactive)
pKd [5]: 5.74
Kd [6]: > 30 µM (inactive)
Kd [7]: > 30 µM (inactive)
Kd [8]: > 30 µM (inactive)
Kd [9]: > 30 µM (inactive)
Kd [10]: > 30 µM (inactive)
Kd [11]: > 30 µM (inactive)
Compound: Cc1cc(C(=O)NOCCO)c(Nc2ccc(I)cc2F)n(C)c1=O [AZD-8330]

Kd [1]: > 30 µM (inactive)
Kd [2]: > 30 µM (inactive)
Kd [3]: > 30 µM (inactive)
Kd [4]: > 30 µM (inactive)
Kd [5]: > 30 µM (inactive)
Kd [6]: > 30 µM (inactive)
Kd [7]: > 30 µM (inactive)
Kd [8]: > 30 µM (inactive)
Kd [9]: > 30 µM (inactive)
Kd [10]: > 30 µM (inactive)
Kd [11]: 57.5 µM (active)
Compound: C#Cc1cccc(Nc2ncnc3cc(OC)c(OCCCCCCC(=O)NO)cc23)c1 [CUDC-101]

Kd [1]: > 30 µM (inactive)
Kd [2]: > 30 µM (inactive)
Kd [3]: > 30 µM (inactive)
Kd [4]: > 30 µM (inactive)
Kd [5]: > 30 µM (inactive)
Kd [6]: > 30 µM (inactive)
Kd [7]: > 30 µM (inactive)
Kd [8]: > 30 µM (inactive)
Kd [9]: > 30 µM (inactive)
Kd [10]: > 30 µM (inactive)
Kd [11]: > 30 µM (inactive)
Compound: NC1(c2ccc(-c3nc4ccn5c(=O)[nH]nc5c4cc3-c3ccccc3)cc2)CCC1 [MK-2206]
